Target: T1, recombinant human SAE enzyme (Homo sapiens, UniProt Q9UBT2)
T1 sequence (Q9UBT2 1-640): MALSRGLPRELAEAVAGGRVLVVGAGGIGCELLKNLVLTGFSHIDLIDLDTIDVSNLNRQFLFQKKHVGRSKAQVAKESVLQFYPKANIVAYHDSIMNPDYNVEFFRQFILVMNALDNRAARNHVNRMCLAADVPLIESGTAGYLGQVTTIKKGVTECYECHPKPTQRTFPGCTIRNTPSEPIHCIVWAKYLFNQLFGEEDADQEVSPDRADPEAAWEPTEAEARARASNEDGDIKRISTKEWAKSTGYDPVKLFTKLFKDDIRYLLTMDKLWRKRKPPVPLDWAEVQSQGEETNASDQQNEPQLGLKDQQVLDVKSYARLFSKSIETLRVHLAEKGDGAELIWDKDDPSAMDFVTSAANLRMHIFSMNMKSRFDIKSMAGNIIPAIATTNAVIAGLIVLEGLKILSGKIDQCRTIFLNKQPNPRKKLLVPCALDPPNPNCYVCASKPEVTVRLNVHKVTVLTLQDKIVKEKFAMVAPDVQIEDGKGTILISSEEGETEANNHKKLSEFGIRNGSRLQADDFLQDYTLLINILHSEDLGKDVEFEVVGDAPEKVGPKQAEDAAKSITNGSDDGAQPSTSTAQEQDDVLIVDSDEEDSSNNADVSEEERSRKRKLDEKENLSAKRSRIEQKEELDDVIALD
T1 sequence (Q9UBE0 1-346 partner): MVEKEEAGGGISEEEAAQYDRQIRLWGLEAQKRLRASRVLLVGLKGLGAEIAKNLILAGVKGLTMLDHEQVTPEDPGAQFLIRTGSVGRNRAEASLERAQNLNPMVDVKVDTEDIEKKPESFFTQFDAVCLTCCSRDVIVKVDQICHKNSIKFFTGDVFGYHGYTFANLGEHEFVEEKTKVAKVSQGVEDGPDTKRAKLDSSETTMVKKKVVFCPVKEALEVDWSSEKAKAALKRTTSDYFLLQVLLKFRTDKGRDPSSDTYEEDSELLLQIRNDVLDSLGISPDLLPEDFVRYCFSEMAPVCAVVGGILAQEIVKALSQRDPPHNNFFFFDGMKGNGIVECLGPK
Experiment: SAE HTRF Enzyme Assay
Type: biochemical
Details: for IC50: class symbols A-C; for inhibition at 0.111 µM: compound concentration 0.111 μM, read-out: Percent Inhibition
Procedure, shortened: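 Reaction with 0.11 nM recombinant human SAE, 0.5 μM ATP, 0.01 μM Ubc9-GST, 0.125 μM Sumo-Flag in HEPES pH 7.5, MgCl2, GSH, BSA, 105 min at 24 °C. Stopped with EDTA/KF buffer carrying Eu-anti-Flag and anti-GST-APC; HTRF read after 2 h; % inhibition or IC50.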

SMILES | IC50 [nM] | inhibition at 0.111 µM [%]
CSCn1ccc(C(=O)c2cncnc2N[C@@H]2C[C@H](COS(N)(=O)=O)[C@@H](O)C2)n1 [Compound I-281, [(1R,2S,4R)-2-hydroxy-4-{[5-({1-[(methylsulfanyl)methyl]-1H-pyrazol-3-yl}carbonyl)pyrimidin-4-yl]amino}cyclopentyl]methyl sulfamate] | 100 to 1000 | 25
NS(=O)(=O)OC[C@H]1C[C@@H](Nc2ncncc2C(=O)c2ccn(Cc3cccc(Br)c3F)n2)C[C@@H]1O [Compound I-282, {(1R,2S,4R)-4-[(5-{[1-(3-bromo-2-fluorobenzyl)-1H-pyrazol-3-yl]carbonyl}pyrimidin-4-yl)amino]-2-hydroxycyclopentyl}methyl sulfamate] | < 10 | 100
NS(=O)(=O)OC[C@H]1C[C@@H](Nc2ncncc2C(=O)c2ccn(CC(=O)c3cccc(Cl)c3)n2)[C@H](O)[C@@H]1O [Compound I-283, [(1R,2R,3S,4R)-4-{[5-({1-[2-(3-chlorophenyl)-2-oxoethyl]-1H-pyrazol-3-yl}carbonyl)pyrimidin-4-yl]amino}-2,3-dihydroxyoyclopentyl]methyl sulfamate] | < 10 | 97
NS(=O)(=O)OC[C@H]1C[C@@H](Nc2ncncc2C(=O)c2ccn(Cc3cccc(Br)n3)n2)[C@H](O)[C@@H]1O [Compound I-284, [(1R,2R,3S,4R)-4-{[5-({1-[(6-bromopyridin-2-yl)methyl]-1H-pyrazol-3-yl}carbonyl)pyrimidin-4-yl]amino}-2,3-dihydroxycyclopentyl]methyl sulfamate] | < 10 | 100
NS(=O)(=O)OC[C@H]1C[C@@H](Nc2ncncc2C(=O)c2ccn(Cc3csc4ccc(Cl)cc34)n2)[C@H](O)[C@@H]1O [Compound I-285, [(1R,2R,3S,4R)-4-{[5-({1-[(5-chloro-1-benzothiophen-3-yl)methyl]-1H-pyrazol-3-yl}carbonyl)pyrimidin-4-yl]amino}-2,3-dihydroxycyclopentyl]methyl sulfamate] | < 10 | 99
NS(=O)(=O)OC[C@H]1C[C@@H](Nc2ncncc2C(=O)c2ccn(Cc3c(F)cc(F)cc3F)n2)C[C@@H]1O [Compound I-286, {(1R,2S,4R)-2-hydroxy-4-[(5-{[1-(2,4,6-trifluorobenzyl)-1H-pyrazol-3-yl]carbonyl}pyrimidin-4-yl)amino]cyclopentyl}methyl sulfamate] | < 10 | 93
NS(=O)(=O)OC[C@H]1C[C@@H](Nc2ncncc2C(=O)c2ccn(CC#CC3CC3)n2)C[C@@H]1O [Compound I-287, {(1R,2S,4R)-4-[(5-{[1-(3-cyclopropylprop-2-yn-1-yl)-1H-pyrazol-3-yl]carbonyl}pyrimidin-4-yl)amino]-2-hydroxycyclopentyl}methyl sulfamate] | < 10 | 95
NS(=O)(=O)OC[C@H]1C[C@@H](Nc2ncncc2C(=O)c2ccn(Cc3ccc(Cl)c(C(F)(F)F)c3)n2)C[C@@H]1O [Compound I-288, [(1R,2S,4R)-4-{[5-({1-[4-chloro-3-(trifluoromethyl)benzyl]-1H-pyrazol-3-yl}carbonyl)pyrimidin-4-yl]amino}-2-hydroxycyclopentyl]methyl sulfamate] | < 10 | 97
NS(=O)(=O)OC[C@H]1C[C@@H](Nc2ncncc2C(=O)c2ccn(Cc3cc(Cl)ccc3Cl)n2)C[C@@H]1O [Compound I-289, {(1R,2S,4R)-4-[(5-{[1-(2,5-dichlorobenzyl)-1H-pyrazol-3-yl]carbonyl}pyrimidin-4-yl)amino]-2-hydroxycyclopentyl}methyl sulfamate] | < 10 | 98
NS(=O)(=O)OC[C@H]1C[C@@H](Nc2ncncc2C(=O)c2ccn(Cc3ccc(F)c(Br)c3)n2)[C@H](O)[C@@H]1O [Compound I-290, {(1R,2R,3S,4R)-4-[(5-{[1-(3-bromo-4-fluorobenzyl)-1H-pyrazol-3-yl]carbonyl}pyrimidin-4-yl)amino]-2,3-dihydroxycyclopentyl}methyl sulfamate] | < 10 | 99

Source: patent US9695154B2, “Heteroaryl inhibitors of sumo activating enzyme” (MILLENNIUM PHARMACEUTICALS, INC., priority 2013, dated 2017)
